Data: PMC12113707, “Microwave Assisted Synthesis of Antioxidant Dihydro-Pyrazole Hybrids as Possible Lipoxygenase Inhibitors” (Molecules, 2025)

Tests used:
[1] = Experimental lipophilicity RM by reverse phase thin layer chromatography (RP-TLC); assay type: physicochemical; conditions: methanol-water mobile phase
Procedure: Lipophilicity is a main physicochemical parameter for bioactive molecules, linking solubility, ligand-target binding interactions, membrane permeability absorption, distribution, bioavailability, metabolism, elimination and toxicological effects (ADMET), playing an important role in biological activity. The experimental values of lipophilicity RM were determined by reverse phase thin layer chromatography. For the experimental determination of lipophilicity the hydrophilic-lipid phase system is a mixture of methanol- water (90/10%). The theoretical lipophilicity values are determined by the Bioloom program (http://biobyte.com/bb/prod/bioloom.html, accessed on 8 April 2024) (Table 1). According to the calculated clog P values, the most lipophilic compounds are 3c, 3d and 3f while the less lipophilic ones are compounds 5a and 5b.
Melting points were determined on a MEL-Temp II (Lab. Devices, Holliston, MA, USA). In vitro tests were carried out using a UV-Vis spectra and recorded on a Perkin-Elmer 554 double-beam spectrophotometer (Perkin-Elmer Corporation Ltd., Lane Beaconsfield, Bucks, UK). Infrared spectra (KBr pellets) were recorded with Perkin-Elmer 597 spectrophotometer (Perkin-Elmer Corporation Ltd., Lane Beaconsfield, Bucks, UK). The ^1H […] Magnetic Resonance (^1H-NMR) spectra were acquired on an Agilent 500/54 (DD2) at 500 MHz in CDCl3 using tetramethylsilane as an internal standard. Agilent 500/54 (DD2) ^13C NMR spectra were acquired at 125 MHz in CDCl3 solutions with tetramethylsilane serving as an internal reference. Coupling constants J are expressed in Hz, and chemical shifts are reported in ppm. Thermo Fisher Scientific Inc., Waltham, MA, USA, used MeOH as the solvent to calculate mass spectra using an LC-PDA-MS Thermo Finnigan system (LC Pump Plus, Autosampler, Surveyor PDA Plus Detector) interfaced with an ESI MSQ Plus (Thermo Finnigan). Thin-layer chromatography using 5554 F254 Silica gel/TLC cards (Merck and Fluka Chemie GmbH Buchs, Steinheim, Switzerland) was used to monitor the reaction progress. Silica gel 60 F254 plates with a diameter of 2 mm were utilized for preparative thin layer chromatography (prep TLC) by Merck KgaA (ICH078057). Merck (20 × 20 cm) plates were used for the experimental assessment of the lipophilicity using reverse phase thin-layer chromatography (RP-TLC) TLC-Silica gel 60 F254 DC Kieselgel.
In this experiment, TLC silica gel 60 F254 1.05715.0001 commercial glass plates from Merck were used. The plates were first immersed in a 5% v/v solution of liquid paraffin in petroleum ether and left for 90 s to become completely impregnated with the stable lipophilic phase. They were then activated by standing for 30 min in an oven at 40 °C and kept there until the time of use. A 70% v/v MeOH/H2O mixture was used as the mobile phase. The mobile phase was saturated with a few drops of liquid paraffin before being used. The spots of the compounds were placed on the plate at a distance of 2 cm from the edges of the plate and also from each other. The development of the spots on the plates was carried out in closed chromatography chambers where the atmosphere is saturated with the mobile phase at room temperature. At the end of development, the solvent-formed front was marked and the plates are dried at 80 °C for about 20–30 min. The appearance of the spots was made under an ultraviolet light lamp. The Rf values were the average of 5–6 measurements for each compound and assuming that the compounds will have been rotated to different positions on the plates. The RM values were calculated from the corresponding Rf values according to the equation [67].RM = log [(1/Rf) − 1](1)

[2] = Interaction with the stable free radical DPPH (reducing activity); conditions: 517 nm
Procedure: In general, the compounds present moderate to good antioxidant activity. It seems that the dibenzylacetones present satisfactory antioxidant activity compared to the hybrids at 60 min (1b, 1d and 1f).
The tested compounds (0.1 mM final concentration) dissolved in DMSO were incubated with a solution of DPPH in absolute ethanol in absence of light. The absorbance at 20 and 60 min at 517 nm was recorded at room temperature. NDGA was used as the reference compound.

[3] = Inhibition of AAPH-induced linoleic acid peroxidation; conditions: 37 °C, 234 nm
Procedure: The ability of the compounds to inhibit AAPH-induced peroxidation of linoleic acid is another assay to investigate the antioxidant properties of the compounds. Azo compounds such as 2,2′-azobis dihydrochloride (2-amidinopropane) (AAPH) are capable of generating free radicals through spontaneous decomposition at 37 °C. The R- radicals react immediately with air-oxygen to produce peroxy radicals. AAPH was therefore used as the radical initiator and sodium linoleate as substrate subjected to peroxidation. Measurements were carried out at 234 nm using a UV/V is spectrophotometer. Dichalcone 1i substituted with two phenyl groups presents the lowest lipophilicity. […] Therefore, hydrophilic substituents offer an increase in activity.
The interaction of free radicals with cell membrane lipids induces free radical chain reactions, a process called lipid peroxidation. 930 μL of a phosphate buffer solution (0.05 M, pH = 7.4), 10 μL of the sodium linolate solution (16 mM in a buffer solution of Tris-HCl pH = 9) and 10 μL of the tested compounds (stock solutions 100 μΜ) were mixed and the oxidative procedure started after the addition of 50 μL AAPH at 37 °C under air conditions. The conjugated diene’s absorbance was measured at 234 nm at a thermostable spectrophotometer (37 °C) according to previous publication.

[4] = molecular target: T1, soybean lipoxygenase (SLOX-1) (Glycine max, UniProt P08170); assay: Inhibition of soybean lipoxygenase in vitro; assay type: biochemical; conditions: pH 9, sodium linoleate substrate; for inhibition at 100 µM: read-out: LOX% Inhibition, 100 μM (±SD); for IC50: read-out: LOX IC50 (μM) (±SD)
T1 construct: 200 μL of plant-derived lipoxygenase solution (1:9 × 10^−4 w/v, in saline); purchased Sigma Chemical, Co; host or cells: soybean (plant-derived)
T1 sequence (P08170 1-839): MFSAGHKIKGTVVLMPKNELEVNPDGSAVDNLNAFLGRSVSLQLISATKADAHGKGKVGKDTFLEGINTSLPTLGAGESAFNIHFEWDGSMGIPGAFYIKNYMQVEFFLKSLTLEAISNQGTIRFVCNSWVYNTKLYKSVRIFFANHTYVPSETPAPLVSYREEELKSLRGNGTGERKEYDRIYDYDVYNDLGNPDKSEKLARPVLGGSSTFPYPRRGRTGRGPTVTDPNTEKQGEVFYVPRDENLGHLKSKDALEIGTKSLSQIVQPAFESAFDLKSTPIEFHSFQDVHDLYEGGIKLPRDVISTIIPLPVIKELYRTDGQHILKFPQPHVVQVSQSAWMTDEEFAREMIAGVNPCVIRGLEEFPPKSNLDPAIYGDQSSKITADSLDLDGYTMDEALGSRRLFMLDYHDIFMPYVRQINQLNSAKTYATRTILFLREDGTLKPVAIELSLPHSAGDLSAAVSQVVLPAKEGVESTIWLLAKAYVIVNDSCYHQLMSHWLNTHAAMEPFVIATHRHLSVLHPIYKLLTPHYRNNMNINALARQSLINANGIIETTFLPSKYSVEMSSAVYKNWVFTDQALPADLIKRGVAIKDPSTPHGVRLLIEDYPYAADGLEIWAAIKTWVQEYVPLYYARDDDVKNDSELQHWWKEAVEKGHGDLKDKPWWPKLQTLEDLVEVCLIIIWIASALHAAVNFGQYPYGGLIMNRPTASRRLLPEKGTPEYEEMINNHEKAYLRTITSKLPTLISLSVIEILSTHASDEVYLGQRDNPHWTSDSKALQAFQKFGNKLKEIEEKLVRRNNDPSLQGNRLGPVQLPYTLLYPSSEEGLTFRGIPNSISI
Procedure: Soybean lipoxygenase SLOX-1 at pH 9 is used in vitro. During this assay linoleic acid sodium salt is converted to the corresponding 13-hydroperoxide. The reaction is recorded photometrically at 234 nm using the UV-based enzyme assay. […] It is known that soybean LOX inhibitory activity induced by NSAIDs is qualitatively quite similar to the inhibition observed on the rat mast cells LOX and this assay may be used as a qualitative or semi-quantitative screen for such activity.
To a quartz cell, add 790 μL of Tris-HCl pH = 9.0 buffer, 200 μL of plant-derived lipoxygenase solution (1:9 × 10^−4 w/v, in saline), 10 μL of the test compound solution and 100 μL of sodium linoleate solution (3 mM concentration). The absorbance was measured at 234 nm, where the change in absorbance due to the conversion of linoleic acid to […] was recorded. A solution of 790 μL of Tris-HCl pH = 9.0 buffer, 200 μL of a plant-derived lipoxygenase solution (1:9 × 10^−4 w/v, in saline), 10 μL of DMSO and 100 μL of sodium linoleate solution (3 mM concentration) was used as a control.

RM ± SD [1] | inhibition at 100 µM [4] [%] | IC50 [4] [µM] | Compound | RA%, 100 μM, 20 min (±SD) [2] [%] | AAPH% Inhibition, 100 μM (±SD) [3] [%] | RA%, 100 μM, 60 min (±SD) [2] [%]
0.17 ± 0.014 | 24 ± 0.8 | – | CC(=O)N1N=C(/C=C/c2ccccc2)CC1c1ccccc1 (stereo not shown) [Compound 6a, (E)-5-phenyl-3-styryl-4,5-dihydro-1-H-pyrazol-1-ethan-1-one] | 11 ± 0.6 | 22 ± 1 | –
0.50 ± 0.043 | – | 80 | NC(=O)N1N=C(/C=C/c2ccc(Cl)cc2)CC1c1ccc(Cl)cc1 (stereo not shown) [Compound 5d, (E)-5-(4-chlorophenyl)-3-(4-chlorostyryl)-4,5-dihydro-1H-pyrazole-1-carboxamide] | – | 33 ± 0.5 | 34 ± 0.5
0.06 ± 0.004 | 39 ± 0.7 | – | NC(=O)N1N=C(/C=C/c2ccc(F)cc2)CC1c1ccc(F)cc1 (stereo not shown) [Compound 5b, (E)-5-(4-fluorophenyl)-3-(4-fluorostyryl)-4,5-dihydro-1H-pyrazole-1-carboxamide] | 19 ± 0.1 | 8 ± 0.2 | –
0.94 ± 0.069 | 17 ± 1.2 | – | N#Cc1ccc(N2N=C(/C=C/c3ccc(Br)cc3)CC2c2ccc(Br)cc2)cc1 (stereo not shown) [Compound 4c, (E)-4-(5-(4-bromophenyl)-3-(4-bromostyryl)-4,5-dihydro-1H-pyrazol-1-yl)-benzonitrile] | 2 ± 0.1 | 59 ± 0.2 | –
1.47 ± 0.044 | 38 ± 2.6 | – | FC(F)(F)c1ccc(/C=C/C2=NN(c3ccc(Br)cc3)C(c3ccc(C(F)(F)F)cc3)C2)cc1 (stereo not shown) [Compound 3f] | 5 ± 0.4 | 75 ± 2.7 | 14 ± 1.2

The next lines start with the compound.

Compound | RM ± SD [1] | inhibition at 100 µM [4] [%] | IC50 [4] [µM] | RA%, 100 μM, 20 min (±SD) [2] [%] | AAPH% Inhibition, 100 μM (±SD) [3] [%] | RA%, 100 μM, 60 min (±SD) [2] [%]
O=C(/C=C/c1ccccc1)/C=C/c1ccccc1 [Compound 1a, (1E,4E)-1,5-diphenyl-1,4-pentadien-3-one] | 0.10 ± 0.003 | – | 10 | 5 ± 0.5 | 69 ± 0.3 | 10 ± 0.5
Brc1ccc(N2N=C(/C=C/c3ccccc3)CC2c2ccccc2)cc1 (stereo not shown) [Compound 3a, (E)-1-(4-bromophenyl)-5-phenyl-3-styryl-4,5-dihydro-1H-pyrazole] | 1.11 ± 0.068 | 51 ± 2.2 | – | 10 ± 0.3 | 75 ± 1.4 | 22 ± 0.9
O=C(/C=C/c1ccc(Br)cc1)/C=C/c1ccc(Br)cc1 [Compound 1c, (1E,4E)-1,5-bis(4-bromophenyl)-1,4-pentadien-3-oneone] | 0.65 ± 0.034 | 28 ± 0.6 | – | – | 61 ± 0.5 | 44 ± 1.6
CN(C)c1ccc(/C=C/C(=O)/C=C/c2ccc(N(C)C)cc2)cc1 [Compound 1e, (1E,4E)-1,5-bis(4-dimethylaminophenyl)-1,4-pentadien-3-one] | −0.14 ± 0.009 | 24 ± 0.6 | – | – | 50 ± 0.5 | 100 ± 8.7
Fc1ccc(/C=C/C2=NN(c3ccc(Br)cc3)C(c3ccc(F)cc3)C2)cc1 (stereo not shown) [Compound 3b] | 1.03 ± 0.057 | 17 ± 0.8 | – | 2 ± 0.1 | 63 ± 2.6 | 6 ± 0.6
Fc1ccc(/C=C/C2=NN(c3ccccc3)C(c3ccc(F)cc3)C2)cc1 (stereo not shown) [Compound 2b] | 0.78 ± 0.065 | 24 ± 1.9 | – | 2 ± 0.1 | 39 ± 0.3 | 15 ± 0.6
